Results: ChEMBL document CHEMBL1201862, “PubChem BioAssay data set” (2004)
Calls of active or inactive are those of the source.

Assays:
[1] = cytotoxicity toward NIH3T3 fibroblasts, dose response, counter-screen, cell-based, ATP luminescence, mouse fibroblasts (AID 2010); assay type: functional;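 note: cells exposed to compound for about 90 hours before reading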
[2] = inhibitors of intracellular T. cruzi replication, confirmation, NIH3T3 host cells, beta-gal luminescence (AID 2044); assay type: functional, cell-based;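 note: intracellular parasites grown in NIH/3T3 mouse fibroblasts as host cells; luminescent beta-galactosidase reporter signal from transgenic T. cruzi replicating inside host cells; inhibitors lower the luminescence signal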
[3] = molecular target: DNA dC->dU-editing enzyme APOBEC-3A (Homo sapiens, UniProt P31941); assay: APOBEC3A DNA deaminase inhibitors, dose response, biochemical (AID 504722); assay type: functional
[4] = molecular target: DNA dC->dU-editing enzyme APOBEC-3G (Homo sapiens, UniProt Q9HC16); assay: Dose Response confirmation of small molecule APOBEC3G DNA Deaminase Inhibitors via a fluorescence-based single-stranded DNA deaminase assay. [Related pubchem assays (depositor defined):AID493012, AID493028]; assay type: functional
[5] = M. tuberculosis H37Rv growth inhibitors, H37Rv strain (AID 1626); assay type: functional
Aminopeptidase N = molecular target: T1, Aminopeptidase N (Plasmodium falciparum FcB1/Columbia, UniProt O96935); assay: P. falciparum M1AAP inhibitors, biochemical, fluorogenic H-Leu-NHMec substrate, 1536-well (AID 1445); parameters: species or system Plasmodium falciparum 3D7, 3D7
T1 sequence (O96935 whole entry): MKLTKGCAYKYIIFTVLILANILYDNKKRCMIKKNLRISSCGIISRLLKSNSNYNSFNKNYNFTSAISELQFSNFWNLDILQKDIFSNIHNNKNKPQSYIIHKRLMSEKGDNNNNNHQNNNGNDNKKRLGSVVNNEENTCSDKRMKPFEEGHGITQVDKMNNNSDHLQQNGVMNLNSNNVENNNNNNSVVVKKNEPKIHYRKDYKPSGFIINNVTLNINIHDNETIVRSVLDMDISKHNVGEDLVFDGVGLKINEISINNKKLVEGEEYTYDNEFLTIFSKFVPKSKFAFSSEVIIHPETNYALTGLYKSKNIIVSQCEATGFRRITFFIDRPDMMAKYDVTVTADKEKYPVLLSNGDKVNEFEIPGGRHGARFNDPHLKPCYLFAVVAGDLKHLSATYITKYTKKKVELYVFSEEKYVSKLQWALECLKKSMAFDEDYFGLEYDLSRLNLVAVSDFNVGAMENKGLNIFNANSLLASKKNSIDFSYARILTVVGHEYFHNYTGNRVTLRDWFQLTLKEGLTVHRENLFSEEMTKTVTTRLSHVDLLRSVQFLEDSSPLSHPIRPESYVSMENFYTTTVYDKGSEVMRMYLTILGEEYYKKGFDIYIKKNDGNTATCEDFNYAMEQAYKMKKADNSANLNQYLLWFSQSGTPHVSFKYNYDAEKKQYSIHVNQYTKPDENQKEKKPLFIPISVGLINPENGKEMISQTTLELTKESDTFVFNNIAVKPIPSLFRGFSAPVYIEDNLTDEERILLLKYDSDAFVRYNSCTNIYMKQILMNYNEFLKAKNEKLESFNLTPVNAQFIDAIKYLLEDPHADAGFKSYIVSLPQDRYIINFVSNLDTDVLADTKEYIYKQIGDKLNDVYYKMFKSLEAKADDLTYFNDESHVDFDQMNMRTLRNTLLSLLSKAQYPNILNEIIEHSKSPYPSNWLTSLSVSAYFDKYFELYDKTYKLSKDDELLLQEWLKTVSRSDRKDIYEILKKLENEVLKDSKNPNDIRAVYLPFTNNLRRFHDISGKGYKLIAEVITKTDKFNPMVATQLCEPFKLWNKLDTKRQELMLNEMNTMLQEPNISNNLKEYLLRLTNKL

[6] = molecular target: G-protein coupled receptor 55 (Homo sapiens, UniProt Q9Y2T6); assay: GPR55 agonists via beta-arrestin recruitment, primary screen, imaging, U2OS cells, beta-arrestin-GFP redistribution (AID 1961); assay type: functional
SUMO-activating enzyme [7] = molecular target: T2, SUMO-activating enzyme (Homo sapiens, UniProt Q9UBT2); assay: inhibitors of in vitro SUMOylation cascade, primary screen, biochemical, HTRF, uHTS (AID 2006); assay type: protein-complex assay
SUMO-activating enzyme [8] = molecular target: T2, SUMO-activating enzyme; assay: SUMOylation inhibitor hit validation, confirmation, SUMOylation inhibitor project, biochemical, AlphaScreen (AID 2018); assay type: functional
[9] = system: Streptococcus sp. 'group A'; assay: growth inhibition of control SK(-) GAS strain, dose response, counter-screen for streptokinase expression inhibitor project, luminescence, kanamycin, BacTiterGlo, confirmation (AID 1900); assay type: functional, organism-based
Streptokinase A = molecular target: T3, Streptokinase A (Streptococcus pyogenes serotype M1, UniProt P10520); assay: S. pyogenes streptokinase expression inhibitors, potency, dose response, plasminogen activation absorbance, OD405 (AID 1914); assay type: functional, Streptococcus pyogenes M1 GAS;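 note: secreted streptokinase activity via plasminogen activation per viability signal from cell pellet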
T3 sequence (P10520 whole entry): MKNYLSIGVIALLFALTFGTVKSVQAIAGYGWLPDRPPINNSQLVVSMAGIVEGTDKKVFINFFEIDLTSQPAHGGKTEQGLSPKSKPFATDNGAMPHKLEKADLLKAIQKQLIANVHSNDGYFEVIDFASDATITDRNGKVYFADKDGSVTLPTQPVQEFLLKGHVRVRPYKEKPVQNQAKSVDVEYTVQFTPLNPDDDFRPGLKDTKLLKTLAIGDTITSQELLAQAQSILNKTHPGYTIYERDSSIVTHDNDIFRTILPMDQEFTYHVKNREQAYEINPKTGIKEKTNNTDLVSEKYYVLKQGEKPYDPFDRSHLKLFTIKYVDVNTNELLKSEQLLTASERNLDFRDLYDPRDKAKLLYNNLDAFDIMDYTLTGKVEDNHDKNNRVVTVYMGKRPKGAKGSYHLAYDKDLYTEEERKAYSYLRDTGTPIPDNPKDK

Streptococcus = assay: Group A Streptococcus viability loss, dose response, counter-screen for streptokinase expression inhibitor project, luminescence, BacTiterGlo (AID 1915); assay type: functional, organism-based;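 note: potency for reduction of bacterial viability or growth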
Beta-galactosidase = Beta-galactosidase (Escherichia coli, UniProt Q8VNN2); assay: beta-galactosidase enzyme inhibitors and activators, dose response, artefact control for CCR6 antagonist project, biochemical, E. coli enzyme, set 3 (AID 504712); assay type: functional
HEK293 [10] = assay: cells; assay type: functional, cell-based; conditions: Homo sapiens
Protein RecA = molecular target: T4, Protein RecA (Mycobacterium tuberculosis, UniProt P9WHJ3); assay: Fluorescence Cell-Free Homogeneous Dose Retest to Identify Inhibitors of RecA-Intein Splicing Activity. [Related pubchem assays (depositor defined):AID2097, AID2223, AID489010, AID492950]; assay type: functional
T4 sequence (P9WHJ3 whole entry): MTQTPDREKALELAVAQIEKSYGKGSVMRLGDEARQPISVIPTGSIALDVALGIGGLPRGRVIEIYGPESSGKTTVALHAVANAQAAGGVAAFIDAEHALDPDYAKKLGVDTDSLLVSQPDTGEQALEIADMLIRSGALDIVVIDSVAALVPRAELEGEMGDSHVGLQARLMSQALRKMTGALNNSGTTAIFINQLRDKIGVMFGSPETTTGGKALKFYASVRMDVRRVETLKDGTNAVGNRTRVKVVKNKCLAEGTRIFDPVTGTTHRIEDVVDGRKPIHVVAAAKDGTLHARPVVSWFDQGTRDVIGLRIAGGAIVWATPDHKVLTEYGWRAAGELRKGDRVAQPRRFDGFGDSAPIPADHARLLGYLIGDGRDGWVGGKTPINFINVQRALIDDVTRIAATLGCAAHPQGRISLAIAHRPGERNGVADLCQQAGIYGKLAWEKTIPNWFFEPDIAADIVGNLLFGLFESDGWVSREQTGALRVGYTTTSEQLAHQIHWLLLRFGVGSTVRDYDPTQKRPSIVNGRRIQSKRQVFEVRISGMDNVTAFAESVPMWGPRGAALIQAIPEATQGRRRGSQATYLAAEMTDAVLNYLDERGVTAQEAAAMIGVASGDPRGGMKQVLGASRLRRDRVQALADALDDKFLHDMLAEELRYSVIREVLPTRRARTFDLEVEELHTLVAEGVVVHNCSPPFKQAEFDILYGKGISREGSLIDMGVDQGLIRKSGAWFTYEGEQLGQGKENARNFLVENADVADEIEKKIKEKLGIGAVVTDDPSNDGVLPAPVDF

HEK293 [11] = assay: NOD2 signaling inhibitors in MDP-stimulated cells, cell-based, uHTS, luminescence (AID 2001); assay type: functional; conditions: Homo sapiens
HEK293 [12] = assay: cells; assay type: functional, cell-based; conditions: Homo sapiens; remark: listed apart in the source
HEK293 [13] = assay: NOD1 signaling inhibitors, primary screen, cell-based, luminescence, uHTS (AID 1578); assay type: functional; conditions: Homo sapiens
[14] = molecular target: T5, Replicative DNA helicase DnaB (Mycobacterium tuberculosis, UniProt P9WMR3); assay: DnaB intein splicing inhibitors, dose response, biochemical, cell-free fluorescence (AID 449749); assay type: functional
T5 sequence (P9WMR3 whole entry): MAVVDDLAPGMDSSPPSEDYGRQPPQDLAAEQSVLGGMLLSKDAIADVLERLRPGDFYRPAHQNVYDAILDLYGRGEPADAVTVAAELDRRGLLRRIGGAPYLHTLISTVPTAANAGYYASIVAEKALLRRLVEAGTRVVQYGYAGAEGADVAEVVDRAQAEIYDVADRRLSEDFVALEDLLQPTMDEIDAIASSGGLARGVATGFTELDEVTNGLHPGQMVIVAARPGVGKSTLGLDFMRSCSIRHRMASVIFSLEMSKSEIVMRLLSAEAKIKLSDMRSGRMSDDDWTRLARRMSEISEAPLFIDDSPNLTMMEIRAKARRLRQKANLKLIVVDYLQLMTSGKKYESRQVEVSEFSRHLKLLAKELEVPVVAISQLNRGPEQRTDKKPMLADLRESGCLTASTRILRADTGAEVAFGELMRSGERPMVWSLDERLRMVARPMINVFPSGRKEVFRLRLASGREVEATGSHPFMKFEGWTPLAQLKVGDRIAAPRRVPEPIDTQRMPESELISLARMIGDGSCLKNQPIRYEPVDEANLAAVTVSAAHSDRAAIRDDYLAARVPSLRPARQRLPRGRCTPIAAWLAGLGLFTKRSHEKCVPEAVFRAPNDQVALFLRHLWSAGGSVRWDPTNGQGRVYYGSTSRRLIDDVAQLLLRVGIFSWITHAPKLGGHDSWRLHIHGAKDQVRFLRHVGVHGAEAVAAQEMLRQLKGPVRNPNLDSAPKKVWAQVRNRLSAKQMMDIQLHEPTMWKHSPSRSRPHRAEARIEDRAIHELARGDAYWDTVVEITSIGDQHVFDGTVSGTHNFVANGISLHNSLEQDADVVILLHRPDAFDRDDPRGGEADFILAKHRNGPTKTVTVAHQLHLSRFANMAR

HEK293 [15] = assay: cells; assay type: functional, cell-based; conditions: Homo sapiens; remark: listed apart in the source
[16] = molecular target: Nucleotide-binding oligomerization domain-containing protein 2 (Homo sapiens, UniProt Q9HC29); assay: NOD2 signaling inhibitors, cell-based, luminescence, uHTS, HEK293 (AID 1566); assay type: functional
H9c2 = assay: cells; assay type: functional, cell-based; conditions: Rattus norvegicus, H9c2, Myocardium;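 note: confirmatory concentration-response retest of ultra-high-throughput screening hits for modulation of myocardial damage; cell death induced by hydrogen peroxide oxidative stress; compound pretreatment for 60 min then peroxide exposure for 2 h; potency is for protecting the cells against peroxide damage rather than for killing them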
Genome polyprotein = Genome polyprotein (dengue virus type 2, UniProt P29990); assay: Dengue-2 NS5 methyltransferase inhibitors, primary screen, biochemical, confirmation dose response (AID 588689); assay type: functional
[17] = molecular target: Induced myeloid leukemia cell differentiation protein Mcl-1 (Homo sapiens, UniProt Q07820); assay type: functional
Induced myeloid leukemia cell differentiation protein Mcl-1, sequence (Q07820 whole entry): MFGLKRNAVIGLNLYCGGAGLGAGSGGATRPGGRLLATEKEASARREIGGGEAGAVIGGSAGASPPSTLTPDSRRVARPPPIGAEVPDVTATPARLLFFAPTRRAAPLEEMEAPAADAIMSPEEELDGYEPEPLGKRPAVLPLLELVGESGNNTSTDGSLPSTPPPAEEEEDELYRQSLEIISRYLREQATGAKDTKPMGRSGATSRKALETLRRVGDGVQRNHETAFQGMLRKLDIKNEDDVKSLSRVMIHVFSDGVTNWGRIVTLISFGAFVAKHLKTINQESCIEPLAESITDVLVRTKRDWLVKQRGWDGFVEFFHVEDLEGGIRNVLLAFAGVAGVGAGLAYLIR

T2 sequence (Q9UBE0 whole entry): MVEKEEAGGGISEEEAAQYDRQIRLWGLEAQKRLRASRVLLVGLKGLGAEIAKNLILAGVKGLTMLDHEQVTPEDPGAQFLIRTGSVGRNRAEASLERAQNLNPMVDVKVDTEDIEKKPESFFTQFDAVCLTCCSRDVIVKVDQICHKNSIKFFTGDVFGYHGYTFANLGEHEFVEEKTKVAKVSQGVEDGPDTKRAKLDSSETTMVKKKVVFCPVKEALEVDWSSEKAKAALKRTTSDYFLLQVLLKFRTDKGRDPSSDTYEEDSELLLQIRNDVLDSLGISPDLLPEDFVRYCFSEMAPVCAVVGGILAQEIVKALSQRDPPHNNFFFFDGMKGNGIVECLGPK
T2 sequence (Q9UBT2 whole entry): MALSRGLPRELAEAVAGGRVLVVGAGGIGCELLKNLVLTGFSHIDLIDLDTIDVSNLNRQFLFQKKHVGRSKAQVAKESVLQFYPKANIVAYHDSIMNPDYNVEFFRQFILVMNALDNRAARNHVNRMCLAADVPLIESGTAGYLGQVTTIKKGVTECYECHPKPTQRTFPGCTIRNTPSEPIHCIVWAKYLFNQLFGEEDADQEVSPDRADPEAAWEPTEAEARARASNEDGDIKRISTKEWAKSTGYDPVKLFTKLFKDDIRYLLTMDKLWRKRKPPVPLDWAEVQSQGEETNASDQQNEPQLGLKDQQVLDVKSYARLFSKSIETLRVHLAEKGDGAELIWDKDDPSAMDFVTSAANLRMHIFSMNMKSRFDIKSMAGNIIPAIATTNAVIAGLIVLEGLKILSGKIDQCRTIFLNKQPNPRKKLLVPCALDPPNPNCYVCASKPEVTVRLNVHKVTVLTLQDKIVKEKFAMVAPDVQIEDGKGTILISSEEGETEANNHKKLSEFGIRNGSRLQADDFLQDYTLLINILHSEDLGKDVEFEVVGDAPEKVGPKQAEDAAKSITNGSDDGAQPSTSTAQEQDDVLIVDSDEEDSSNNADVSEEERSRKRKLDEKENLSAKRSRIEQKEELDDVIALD
G-protein coupled receptor 55, sequence (Q9Y2T6 whole entry): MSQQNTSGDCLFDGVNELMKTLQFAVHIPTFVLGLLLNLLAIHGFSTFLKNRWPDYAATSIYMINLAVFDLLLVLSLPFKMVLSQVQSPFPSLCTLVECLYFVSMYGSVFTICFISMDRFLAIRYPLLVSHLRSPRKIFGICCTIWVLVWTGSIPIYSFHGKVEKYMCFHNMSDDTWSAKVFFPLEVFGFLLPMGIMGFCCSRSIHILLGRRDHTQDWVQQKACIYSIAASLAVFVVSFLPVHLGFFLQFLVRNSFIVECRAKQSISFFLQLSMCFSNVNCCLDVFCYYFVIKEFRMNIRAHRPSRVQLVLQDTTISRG
DNA dC->dU-editing enzyme APOBEC-3G, sequence (Q9HC16 whole entry): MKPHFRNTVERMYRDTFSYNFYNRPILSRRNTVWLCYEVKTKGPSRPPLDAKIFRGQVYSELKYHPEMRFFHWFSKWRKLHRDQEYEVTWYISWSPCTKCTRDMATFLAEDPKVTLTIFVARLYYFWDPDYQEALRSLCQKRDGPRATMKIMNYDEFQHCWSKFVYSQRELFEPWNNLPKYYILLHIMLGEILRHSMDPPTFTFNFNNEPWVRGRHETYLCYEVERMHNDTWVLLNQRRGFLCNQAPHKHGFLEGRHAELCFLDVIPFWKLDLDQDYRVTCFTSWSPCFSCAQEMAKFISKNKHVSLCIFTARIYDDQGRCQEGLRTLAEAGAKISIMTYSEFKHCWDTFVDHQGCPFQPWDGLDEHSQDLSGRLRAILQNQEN
DNA dC->dU-editing enzyme APOBEC-3A, sequence (P31941 whole entry): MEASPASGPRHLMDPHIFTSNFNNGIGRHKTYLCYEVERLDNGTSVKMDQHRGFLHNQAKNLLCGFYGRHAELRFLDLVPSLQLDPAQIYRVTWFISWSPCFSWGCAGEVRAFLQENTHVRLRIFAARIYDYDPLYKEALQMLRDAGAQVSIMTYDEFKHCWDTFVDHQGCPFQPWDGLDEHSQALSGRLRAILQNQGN
Beta-galactosidase, sequence (Q8VNN2 whole entry): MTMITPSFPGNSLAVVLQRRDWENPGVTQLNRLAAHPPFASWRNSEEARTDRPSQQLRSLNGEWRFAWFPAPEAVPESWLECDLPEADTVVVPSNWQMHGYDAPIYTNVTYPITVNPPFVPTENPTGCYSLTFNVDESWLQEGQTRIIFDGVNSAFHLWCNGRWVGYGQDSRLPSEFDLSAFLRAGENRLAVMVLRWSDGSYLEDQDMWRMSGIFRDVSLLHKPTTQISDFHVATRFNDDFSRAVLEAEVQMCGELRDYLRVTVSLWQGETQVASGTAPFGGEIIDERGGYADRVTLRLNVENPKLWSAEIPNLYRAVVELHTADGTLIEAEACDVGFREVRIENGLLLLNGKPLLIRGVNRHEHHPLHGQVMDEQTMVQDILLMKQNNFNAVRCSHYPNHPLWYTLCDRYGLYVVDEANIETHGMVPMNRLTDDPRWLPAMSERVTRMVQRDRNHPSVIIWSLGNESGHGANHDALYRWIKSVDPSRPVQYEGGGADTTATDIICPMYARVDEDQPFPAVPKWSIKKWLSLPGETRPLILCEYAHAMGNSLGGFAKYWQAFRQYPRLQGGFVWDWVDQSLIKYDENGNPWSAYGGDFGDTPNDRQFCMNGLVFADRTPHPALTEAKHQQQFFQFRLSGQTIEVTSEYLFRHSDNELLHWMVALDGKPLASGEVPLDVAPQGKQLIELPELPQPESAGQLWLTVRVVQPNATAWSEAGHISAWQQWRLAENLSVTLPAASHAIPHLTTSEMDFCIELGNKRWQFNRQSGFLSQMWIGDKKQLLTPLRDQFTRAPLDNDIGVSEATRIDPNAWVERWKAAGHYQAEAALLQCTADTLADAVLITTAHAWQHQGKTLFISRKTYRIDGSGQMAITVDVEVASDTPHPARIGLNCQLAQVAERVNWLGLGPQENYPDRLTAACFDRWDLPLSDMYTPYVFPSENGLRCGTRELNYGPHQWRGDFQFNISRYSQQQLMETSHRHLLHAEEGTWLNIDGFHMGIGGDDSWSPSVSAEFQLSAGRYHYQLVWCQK
Nucleotide-binding oligomerization domain-containing protein 2, sequence (Q9HC29 whole entry, the tested form may be a part): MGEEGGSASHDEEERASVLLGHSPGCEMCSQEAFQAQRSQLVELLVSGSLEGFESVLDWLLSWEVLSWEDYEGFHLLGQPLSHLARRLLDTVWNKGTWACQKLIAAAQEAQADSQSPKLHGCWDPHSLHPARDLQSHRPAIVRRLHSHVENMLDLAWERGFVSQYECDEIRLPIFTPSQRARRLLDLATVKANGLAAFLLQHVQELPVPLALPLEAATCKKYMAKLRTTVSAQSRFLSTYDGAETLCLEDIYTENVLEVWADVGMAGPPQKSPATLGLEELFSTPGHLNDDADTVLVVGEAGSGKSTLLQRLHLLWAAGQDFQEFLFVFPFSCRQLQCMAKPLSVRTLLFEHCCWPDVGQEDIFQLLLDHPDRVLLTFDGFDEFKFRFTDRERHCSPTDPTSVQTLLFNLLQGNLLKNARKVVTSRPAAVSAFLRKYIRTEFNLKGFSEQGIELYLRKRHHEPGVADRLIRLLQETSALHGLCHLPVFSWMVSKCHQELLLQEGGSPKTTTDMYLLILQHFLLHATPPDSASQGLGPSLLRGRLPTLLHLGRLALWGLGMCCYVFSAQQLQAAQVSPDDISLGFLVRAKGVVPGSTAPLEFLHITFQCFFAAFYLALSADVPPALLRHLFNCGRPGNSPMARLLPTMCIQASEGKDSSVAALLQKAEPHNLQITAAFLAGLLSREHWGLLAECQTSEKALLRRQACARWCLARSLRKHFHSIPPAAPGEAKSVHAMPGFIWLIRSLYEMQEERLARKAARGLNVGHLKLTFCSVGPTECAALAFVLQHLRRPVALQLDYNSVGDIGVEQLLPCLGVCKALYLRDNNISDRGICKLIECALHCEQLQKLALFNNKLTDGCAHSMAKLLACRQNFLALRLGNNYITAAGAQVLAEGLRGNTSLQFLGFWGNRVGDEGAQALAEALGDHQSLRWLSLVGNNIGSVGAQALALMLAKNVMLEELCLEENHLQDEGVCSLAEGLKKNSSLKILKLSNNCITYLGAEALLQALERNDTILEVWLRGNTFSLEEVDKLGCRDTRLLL

CCN(Cc1ccc(C#CCCO)cc1)CC1CCCN(CCc2cccc(F)c2)C1 (centres undefined)
EC50 [1]: 8.84 µM (active)
EC50 [2]: < 0.1 µM (active)
EC50 (cells): 0.369 µM (active)

Sc1nc2cc(Br)c[nH]c-2n1
IC50 [3]: > 100 µM (inactive)
IC50 [4]: 2.94 µM (active)

CCOc1ccc(NC(=O)N(C2CCCCCC2)C2CCN(C(C)=O)CC2)cc1
IC50 [5]: > 100 µM (active)

CC(=O)c1cccc(CN2CCCC(CCC(=O)NCc3ccccc3F)C2)c1 (centres undefined)
EC50 [1]: > 60 µM (not active)
EC50 [2]: < 0.1 µM (active)
EC50 (cells): 0.04 µM (active)

O=C(O)Cc1c(O)nc2ccc(Br)cc2c1-c1ccccc1Cl
IC50 (Aminopeptidase N): 23.1 µM (active)

Cc1ccc(SC[C@H](Cc2ccccc2)N2CC[C@@H](NC(=O)OCc3ccccc3)CCC2=O)cc1
EC50 [6]: 1.42 µM (active)

Cc1ccc(S(=O)(=O)n2ccc(OC(=O)c3cccs3)n2)cc1
IC50 (SUMO-activating enzyme [7]): 94.8 µM (active)
IC50 (SUMO-activating enzyme [8]): 3.61 µM (active)

COc1cccc(C(=O)NC(=S)N2CCN(c3ccc(C(F)(F)F)cc3[N+](=O)[O-])CC2)c1
EC50 [9]: > 150 µM (not active)
EC50 (Streptokinase A): > 150 µM (not active)
EC50 (Streptococcus): > 150 µM (not active)
IC50 (Beta-galactosidase): > 66.6 µM (inactive)

O=C(Nc1nccs1)c1cn(-c2ccccc2)nc1-c1ccccc1
IC50 [5]: > 100 µM (active)

Cc1ccc(-c2nn(C)c(=O)c3ccccc23)cc1CNC(=O)c1ccccc1
IC50 (Aminopeptidase N): 7.39 µM (active)

CC(C)CCn1c(Sc2nc3ccccc3o2)nc2c1c(=O)[nH]c(=O)n2C
IC50 (HEK293 [10]): 7.89 µM (active)
EC50 (Protein RecA): 4.76 µM (active)
IC50 (HEK293 [11]): 5.79 µM (active)
IC50 (HEK293 [12]): > 20 µM (inactive)
EC50 (HEK293 [13]): > 20 µM (inactive)
AC50 [14]: > 380 µM (inconclusive)

COCCN(Cc1ccccc1)C(=O)c1cc(-c2ccc(OC)c(OC)c2)nc2ccccc12
IC50 (HEK293 [10]): > 20 µM (inactive)
IC50 (HEK293 [11]): > 20 µM (inactive)
IC50 (HEK293 [12]): > 20 µM (inactive)
IC50 (HEK293 [15]): 16.3 µM (active)
EC50 (HEK293 [13]): > 20 µM (inactive)
EC50 [16]: > 20 µM (inactive)

CC(=O)Nc1ccc(S(=O)(=O)Nc2cccc(-c3csc(C)n3)c2)cc1
IC50 (Aminopeptidase N): 58.2 µM (active)

COc1cccc(Cn2cc(-c3cccc(C(F)(F)F)c3)nn2)c1
EC50 [6]: 9.1 µM (active)

C=CCOc1ccc(/C=N/c2ccc(OC)cc2)c(O)c1
IC50 (H9c2): 9.42 µM (active)
IC50 [5]: > 100 µM (active)

Cc1[nH]n(-c2ncc(-c3ccccc3)s2)c(=O)c1C(c1ccc(Cl)cc1)C(C#N)C#N (centres undefined)
IC50 (Genome polyprotein): 31.9 µM (active)
IC50 (SUMO-activating enzyme [7]): 28.8 µM (active)
IC50 (SUMO-activating enzyme [8]): 7.91 µM (active)
IC50 [17]: 8.69 µM (active)
